Literature values in patent publication US20110092535A1, “Novel Epilepsy Treatment” (priority 2006, published 2011).
Read-outs that look alike come from different tables or passages of the source.

Tested on: maximal electric shock-induced seizures
Settings: rats

For Cc1nccn1CC1CCc2c(c3ccccc3n2C)C1=O (centres unmarked) [Ondansetron], the “effect against maximal electric shock-induced seizures” value (higher doses (>2 mg/kg)) is listed as “ineffective” and the “effect against maximal electric shock-induced seizures” value (low doses) is listed as “effective”.
